The compounds below were run against T1, Recombinant human GSK3β (Homo sapiens, UniProt P49841) (assay: GSK-3β (Glycogen Synthase Kinase) cell free enzyme assay). Settings: 1 μM; Examples 157-199.
T1 construct: His-tag; made in house; host or cells: Sf9 insect cells / baculovirus
Assay type: biochemical
In short: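 This cell-free kinase assay measured [33P] transfer from [33P]ATP gamma phosphate into the biotinylated peptide bio-LC-S-R-H-S-S-P-H-Q-pS-E-D-E-E-E-OH. After 60 min at RT, reactions were stopped with 0.66 volume of PBS lacking Ca or Mg containing 12.5 mM EDTA, 0.25% Triton-X 100, 125 uM ATP and 6.2 mg/ml streptavidin SPA beads. Bead-bound radioactivity was counted as CPM on a Trilux scintillation counter.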

T1 sequence (P49841 whole entry): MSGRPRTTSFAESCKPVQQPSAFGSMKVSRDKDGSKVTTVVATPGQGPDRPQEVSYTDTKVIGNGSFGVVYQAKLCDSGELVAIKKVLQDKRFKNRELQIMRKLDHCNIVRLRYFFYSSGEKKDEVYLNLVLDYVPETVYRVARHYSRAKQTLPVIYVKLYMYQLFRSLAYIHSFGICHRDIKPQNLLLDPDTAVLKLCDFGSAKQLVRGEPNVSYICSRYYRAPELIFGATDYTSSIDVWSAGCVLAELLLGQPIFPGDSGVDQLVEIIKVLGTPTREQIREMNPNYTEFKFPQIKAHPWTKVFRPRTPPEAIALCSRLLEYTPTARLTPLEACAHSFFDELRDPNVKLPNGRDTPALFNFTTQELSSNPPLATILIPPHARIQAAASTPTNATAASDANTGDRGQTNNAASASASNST

Compound	Percent inhibition at 1 μM [%]
Cn1c(N2[C@@H]3CC[C@H]2CN(S(=O)(=O)c2ccccc2)C3)nc(-c2ccncc2)cc1=O [Example 169, 3-Methyl-2-[(1R,5S)-3-(phenylsulfonyl)-38-diazabicyclo[3.2.1]oct-8-yl]-6-pyridin-4-ylpyrimidin-4(3H)-one]	92

Same assay, conditions: 1 μM; Examples 157-199; read-out: Percent inhibition at 1 μM

Compound	inhibition at 1 µM [%]
Cn1c(N[C@H]2[C@@H]3CN(S(C)(=O)=O)C[C@@H]32)nc(-c2ccncc2)cc1=O [Example 157, 3-Methyl-2-{[(1R,5S,6s)-3-(methylsulfonyl)-3-azabicyclo[3.1.0]hex-6-yl]amino}-6-pyridin-4-ylpyrimidin-4(3H)-one]	61
Cn1c(N[C@H]2CN(S(C)(=O)=O)C[C@@H]2F)nc(-c2ccncc2)cc1=O [Example 158, 2-{[(3S,4S)-4-Fluoro-1-(methylsulfonyl)pyrrolidin-3-yl]amino}-3-methyl-6-pyridin-4-ylpyrimidin-4(3H)-one]	74
CN(c1nc(-c2ccncc2)cc(=O)n1C)C1CCCN(S(C)(=O)=O)CC1 (stereo not shown) [Example 159, 3-Methyl-2-{methyl[1-(methylsulfonyl)azepan-4-yl]amino}-6-pyridin-4-ylpyrimidin-4(3H)-one]	100
CN(c1nc(-c2ccncc2)cc(=O)n1C)C1CCN(S(C)(=O)=O)C1 (stereo not shown) [Example 160, 3-Methyl-2-(methyl[1-(methylsulfonyl)pyrrolidin-3-yl]amino}-6-pyridin-4-ylpyrimidin-4(3H)-one]	79
Cn1c(N[C@@H]2CN(S(C)(=O)=O)C[C@@H]2F)nc(-c2ccncc2)cc1=O [Example 161, 2-{[(3R,4S)-4-Fluoro-1-(methylsulfonyl)pyrrolidin-3-yl]amino}-3-methyl-6-pyridin-4-ylpyrimidin-4(3H)-one]	93
CN(c1nc(-c2ccncc2)cc(=O)n1C)[C@@H]1CC[C@H]2N(S(C)(=O)=O)CC[C@@]2(C)C1 [Example 162, 3-Methyl-2-{methyl[(3a,S5,R7,aR)-3a-methyl-1-(methylsulfonyl)octahydro-1H-indo-5-yl]amino}-6-pyridin-4-ylpyrimidin-4(3H)-one]	84
CCN(c1nc(-c2ccncc2)cc(=O)n1C)C1CCCN(S(C)(=O)=O)CC1 (stereo not shown) [Example 163, 2-{Ethyl[1-(methylsulfonyl)azepan-4-yl]amino}-3-methyl-6-pyridin-4-ylpyrimidin-4(3H)-one]	100
CCN(c1nc(-c2ccncc2)cc(=O)n1C)C1CCCN(S(C)(=O)=O)C1 (stereo not shown) [Example 164, 2-{Ethyl[1-(methylsulfonyl)piperidin-3-yl]amino)-3-methyl-6-pyridin-4-ylpyrimidin-4(3H)-one]	82
CCN(c1nc(-c2ccncc2)cc(=O)n1C)C1CCN(S(C)(=O)=O)CC1 [Example 165, 2-{Ethyl[1-(methylsulfonyl)piperidin-4-yl]amino}-3-methyl-6-pyridin-4-ylpyrimidin-4(3H)-one]	80
CCN(C[C@H]1CCCN1S(C)(=O)=O)c1nc(-c2ccncc2)cc(=O)n1C [Example 166, 2-(Ethyl{[(2R)-1-(methylsulfonyl)pyrrolidin-2-yl]methyl}amino)-3-methyl-6-pyridin-4-ylpyrimidin-4(3H)-one]	74
Cn1c(NC[C@H]2CCCN2S(C)(=O)=O)nc(-c2ccncc2)cc1=O [Example 168, 3-Methyl-2-({[(2R)-1-(methylsulfonyl)pyrrolidin-2-yl]methyl}amino)-6-pyridin-4-ylpyrimidin-4(3H)-one]	78
Cn1c(NC2CCCN(S(=O)(=O)c3ccccc3)CC2)nc(-c2ccncc2)cc1=O (stereo not shown) [Example 170, 3-Methyl-2-{[1-(phenylsulfonyl)azepan-4-yl]amino}-6-pyridin-4-ylpyrimidin-4(3H)-one]	99
Cn1c(NC2CN(S(=O)(=O)c3ccccc3)C2)nc(-c2ccncc2)cc1=O [Example 171, 3-Methyl-2-{[1-(phenylsulfonyl)azetidin-3-yl]amino}-6-pyridin-4-ylpyrimidin-4(3H)-one]	61
Cn1c(N2CC[C@@H]3CN(S(=O)(=O)c4ccccc4)C[C@@H]32)nc(-c2ccncc2)cc1=O [Example 172, 3-Methyl-2-[(3a,R6,aR)-5-(phenylsulfonyl)hexahydro-pyrrolo[34-b]pyrrol-1(2H)-yl]-6-pyridin-4-ylpyrimidin-4(3H)-one]	81
Cn1c(NC2CCCCN(S(=O)(=O)c3ccccc3)C2)nc(-c2ccncc2)cc1=O (stereo not shown) [Example 173, 3-Methyl-2-{[1-(phenylsulfonyl)azepan-3-yl]amino}-6-pyridin-4-ylpyrimidin-4(3H)-one]	51
Cn1c(NC2CCN(S(=O)(=O)c3ccccc3)C2)nc(-c2ccncc2)cc1=O (stereo not shown) [Example 174, 3-Methyl-2-{[1-(phenylsulfonyl)pyrrolidin-3-yl]amino}-6-pyridin-4-ylpyrimidin-4(3H)-one]	95
Cn1c(NC2CCN(S(=O)(=O)c3ccccc3)CC2)nc(-c2ccncc2)cc1=O [Example 175, 3-Methyl-2-{[1-(phenylsulfonyl)piperidin-4-yl]amino}-6-pyridin-4-ylpyrimidin-4(3H)-one]	49
Cn1c(N[C@H]2CN(S(=O)(=O)c3ccccc3)C[C@@H]2F)nc(-c2ccncc2)cc1=O [Example 176, 2-{[(3S,4S)-4-Fluoro-1-(phenylsulfonyl)pyrrolidin-3-yl]amino}-3-methy!-6-pyridin-4-ylpyrimidin-4(3H)-one]	96
Cn1c(N[C@H]2[C@@H]3CN(S(=O)(=O)c4ccccc4)C[C@@H]32)nc(-c2ccncc2)cc1=O [Example 177, 3-Methyl-2-{[(1R,5S,6s)-3-(phenylsulfonyl)-3-azabicyclo[3.1.0]hex-6-yl]amino}-6-pyridin-4-ylpyrimidin-4(3H)-one]	97
CN(c1nc(-c2ccncc2)cc(=O)n1C)[C@H]1CC[C@H]2N(S(=O)(=O)c3ccccc3)CC[C@@]2(C)C1 [Example 178, 3-Methyl-2-{methyl[(3a,S5,S7,aR)-3a-methyl-1-(phenylsulfonyl)octahydro-1H-indol-5-yl]amino}-6-pyridin-4-ylpyrimidin-4(3H)-one]	100

Same assay, conditions: cell free enzyme assay; Examples 62-155

Compound	IC50 [nM]
CC[C@@H](Oc1ccccc1)C(=O)N1C[C@@H]2[C@H](C1)[C@H]2N(C)c1nc(-c2ccncc2F)cc(=O)n1C [Example 145, 6-(3-Fluoropyridin-4-yl)-3-methyl-2-{methyl[(1R,5S,6s)-3-(2-phenoxybutanoyl)-3-azabicyclo[3.1.0]hex-6-yl]amino}pyrimidin-4(3H)-one]	13.2
CN(c1nc(-c2ccncc2F)cc(=O)n1C)[C@H]1[C@@H]2CN(C(=O)Cc3cccs3)C[C@@H]21 [Example 146, 6-(3-Fluoropyridin-4-yl)-3-methyl-2-{methyl[(1R,5S,6s)-3-(2-thienylacetyl)-3-azabicyclo[3.1.0]hex-6-yl]amino}pyrimidin-4(3H)-one]	6.16
Cc1cc(C(=O)N2C[C@@H]3[C@H](C2)[C@H]3N(C)c2nc(-c3ccncc3F)cc(=O)n2C)c(C)o1 [Example 147, 2-{[(1R,5S,6s)-3-(2,5-Dimethyl-3-furoyl)-3-azabicyclo[3.1.0]hex-6-yl](methyl)amino}-6-(3-fluoropyridin-4-yl)-3-methylpyrimidin-4(3H)-one]	3.7
CN(c1nc(-c2ccncc2F)cc(=O)n1C)[C@H]1[C@@H]2CN(C(=O)c3ccncc3Cl)C[C@@H]21 [Example 148, 2-{[(1R,5S,6s)-3-(3-Chloroisonicotinoyl)-3-azabicyclo[3.1.0]hex-6-yl](methyl)amino}-6-(3-fluoropyridin-4-yl)-3-methylpyrimidin-4(3H)-one]	36.1
CN(c1nc(-c2ccncc2F)cc(=O)n1C)[C@H]1[C@@H]2CN(C(=O)c3c(Cl)cccc3Cl)C[C@@H]21 [Example 149, 2-{[(1R,5S,6s)-3-(2,6-Dichlorobenzoyl)-3-azabicyclo[3.1.0]hex-6-yl](methyl)amino}-6-(3-fluoropyridin-4-yl)-3-methylpyrimidin-4(3H)-one]	3.81
CN(c1nc(-c2ccncc2F)cc(=O)n1C)[C@H]1[C@@H]2CN(C(=O)c3ccccc3)C[C@@H]21 [Example 150, 2-{[(1R,5S,6s)-3-Benzoyl-3-azabicyclo[3.1.0]hex-6-yl](methyl)amino}-6-(3-fluoropyridin-4-yl)-3-methylpyrimidin-4(3H)-one]	1.51
COc1ccc(C(=O)N2C[C@@H]3[C@H](C2)[C@H]3N(C)c2nc(-c3ccncc3F)cc(=O)n2C)c(OC)c1 [Example 151, 2-{[(1R,5S,6s)-3-(2,4-Dimethoxybenzoyl)-3-azabicyclo[3.1.0]hex-6-yl](methyl)amino}-6-(3-fluoropyridin-4-yl)-3-methylpyrimidin-4(3H)-one]	1.22
CN(c1nc(-c2ccncc2F)cc(=O)n1C)[C@H]1[C@@H]2CN(C(=O)c3ccc(F)c(F)c3)C[C@@H]21 [Example 153, 2-{[(1R,5S,6s)-3-(3,4-Difluorobenzoyl)-3-azabicyclo[3.1.0]hex-6-yl](methyl)amino}-6-(3-fluoropyridin-4-yl)-3-methylpyrimidin-4(3H)-one]	7.23
CN(c1nc(-c2ccncc2F)cc(=O)n1C)[C@H]1[C@@H]2CN(C(=O)c3ccc(C(F)(F)F)nc3)C[C@@H]21 [Example 154, 6-(3-Fluoropyridin-4-yl)-3-methyl-2-{methyl[(1R,5S,6s)-3-{[6-(trifluoromethyl)pyridin-3-yl]carbonyl}-3-azabicyclo[3.1.0]hex-6-yl]amino}pyrimidin-4(3H)-one]	26.4
Cc1c(C(=O)N2C[C@@H]3[C@H](C2)[C@H]3N(C)c2nc(-c3ccncc3F)cc(=O)n2C)cnn1-c1ccccc1 [Example 155, 6-(3-Fluoropyridin-4-yl)-3-methyl-2-(methyl{(1R,5S,6s)-3-[(5-methyl-1-phenyl-1H-pyrazol-4-yl)carbonyl]-3-azabicyclo[3.1.0]hex-6-yl}amino)pyrimidin-4(3H)-one]	102
